From US9902696B2, “1,4-substituted piperidine derivatives” (Cephalon, Inc., priority 2015, dated 2018)
Counter-ions that a name gives are not always drawn.

Molecular target: T1, recombinant human baculovirus-expressed GST-tagged FASN (Homo sapiens, UniProt P49327)
T1 construct: GST
Test: FASN enzyme activity assay, fluorescence-based detection of CoA with CPM
Assay type: biochemical
Details: 5 nM FASN, 150 μM NADPH, 10 μM acetyl-CoA, 25 μM malonyl-CoA, 90 minutes incubation; read-out: IC50 data for Compounds of Formulae I-V/V(a): Activity
Source text: FASN Enzyme activity may be determined by detecting coenzyme A (CoA), a product of FASN-catalyzed synthesis of palmitate from acetyl-CoA and malonyl-CoA with NADPH as a cofactor. The assay is fluorescence-based and measures the interaction of free CoA with 7-diethylamino-3-(4′-malemimidylphenyl)-4-methylcoumarin (CPM; Life Technologies, CA) as described in Chung et al (2008). The coumarin derivative CPM contains a thiol-reactive maleimide that becomes fluorescent upon interaction with the sulfhydryl group of CoA.
For the example compounds described herein, the reaction was performed in 384-well low volume non-binding plates (Corning, N.Y.) using recombinant human baculovirus-expressed GST-tagged FASN. The 20-μL assay mixture contained 50 mM HEPES (pH 7.5), 5 nM FASN, 150 μM NADPH (Sigma, St. Louis, Mo.), 10 μM acetyl-CoA (Sigma), 25 μM malonyl-CoA (Sigma) and test compound [diluted in dimethyl sulfoxide (DMSO); 0.5% DMSO final in assay after 100 nL addition]. See, Chung et al.; “A fluorescence-based thiol quantification assay for ultra-high-throughput screening for inhibitors of coenzyme A production,” Assay Drug Dev Tech 2008; 6:361-374.
The reaction was initiated by adding malonyl-CoA, followed by incubation for 90 minutes at […]. A stock solution of the CPM reagent was prepared in DMSO at […] and stored at […]. To detect CoA produced in the FASN reaction, the CPM stock was diluted to […] in 70% ethanol and added at 4 μL/well to the assay plate. The reaction mixture was then incubated for 30 minutes. Fluorescence was measured using the EnVision™ 2102 multi-label plate reader (PerkinElmer, Waltham, Mass.) utilizing a general dual mirror, a 390 nm excitation filter and a 530 nm emission filter. Data analysis was performed using ActivityBase (IDBS, Guilford, UK). IC50 values were calculated by plotting the percent inhibition versus log 10 of the concentration of the compound, and fitting to the nonlinear regression sigmoidal dose-response (variable slope) equation in XLFit (IDBS).

T1 sequence (P49327 whole entry): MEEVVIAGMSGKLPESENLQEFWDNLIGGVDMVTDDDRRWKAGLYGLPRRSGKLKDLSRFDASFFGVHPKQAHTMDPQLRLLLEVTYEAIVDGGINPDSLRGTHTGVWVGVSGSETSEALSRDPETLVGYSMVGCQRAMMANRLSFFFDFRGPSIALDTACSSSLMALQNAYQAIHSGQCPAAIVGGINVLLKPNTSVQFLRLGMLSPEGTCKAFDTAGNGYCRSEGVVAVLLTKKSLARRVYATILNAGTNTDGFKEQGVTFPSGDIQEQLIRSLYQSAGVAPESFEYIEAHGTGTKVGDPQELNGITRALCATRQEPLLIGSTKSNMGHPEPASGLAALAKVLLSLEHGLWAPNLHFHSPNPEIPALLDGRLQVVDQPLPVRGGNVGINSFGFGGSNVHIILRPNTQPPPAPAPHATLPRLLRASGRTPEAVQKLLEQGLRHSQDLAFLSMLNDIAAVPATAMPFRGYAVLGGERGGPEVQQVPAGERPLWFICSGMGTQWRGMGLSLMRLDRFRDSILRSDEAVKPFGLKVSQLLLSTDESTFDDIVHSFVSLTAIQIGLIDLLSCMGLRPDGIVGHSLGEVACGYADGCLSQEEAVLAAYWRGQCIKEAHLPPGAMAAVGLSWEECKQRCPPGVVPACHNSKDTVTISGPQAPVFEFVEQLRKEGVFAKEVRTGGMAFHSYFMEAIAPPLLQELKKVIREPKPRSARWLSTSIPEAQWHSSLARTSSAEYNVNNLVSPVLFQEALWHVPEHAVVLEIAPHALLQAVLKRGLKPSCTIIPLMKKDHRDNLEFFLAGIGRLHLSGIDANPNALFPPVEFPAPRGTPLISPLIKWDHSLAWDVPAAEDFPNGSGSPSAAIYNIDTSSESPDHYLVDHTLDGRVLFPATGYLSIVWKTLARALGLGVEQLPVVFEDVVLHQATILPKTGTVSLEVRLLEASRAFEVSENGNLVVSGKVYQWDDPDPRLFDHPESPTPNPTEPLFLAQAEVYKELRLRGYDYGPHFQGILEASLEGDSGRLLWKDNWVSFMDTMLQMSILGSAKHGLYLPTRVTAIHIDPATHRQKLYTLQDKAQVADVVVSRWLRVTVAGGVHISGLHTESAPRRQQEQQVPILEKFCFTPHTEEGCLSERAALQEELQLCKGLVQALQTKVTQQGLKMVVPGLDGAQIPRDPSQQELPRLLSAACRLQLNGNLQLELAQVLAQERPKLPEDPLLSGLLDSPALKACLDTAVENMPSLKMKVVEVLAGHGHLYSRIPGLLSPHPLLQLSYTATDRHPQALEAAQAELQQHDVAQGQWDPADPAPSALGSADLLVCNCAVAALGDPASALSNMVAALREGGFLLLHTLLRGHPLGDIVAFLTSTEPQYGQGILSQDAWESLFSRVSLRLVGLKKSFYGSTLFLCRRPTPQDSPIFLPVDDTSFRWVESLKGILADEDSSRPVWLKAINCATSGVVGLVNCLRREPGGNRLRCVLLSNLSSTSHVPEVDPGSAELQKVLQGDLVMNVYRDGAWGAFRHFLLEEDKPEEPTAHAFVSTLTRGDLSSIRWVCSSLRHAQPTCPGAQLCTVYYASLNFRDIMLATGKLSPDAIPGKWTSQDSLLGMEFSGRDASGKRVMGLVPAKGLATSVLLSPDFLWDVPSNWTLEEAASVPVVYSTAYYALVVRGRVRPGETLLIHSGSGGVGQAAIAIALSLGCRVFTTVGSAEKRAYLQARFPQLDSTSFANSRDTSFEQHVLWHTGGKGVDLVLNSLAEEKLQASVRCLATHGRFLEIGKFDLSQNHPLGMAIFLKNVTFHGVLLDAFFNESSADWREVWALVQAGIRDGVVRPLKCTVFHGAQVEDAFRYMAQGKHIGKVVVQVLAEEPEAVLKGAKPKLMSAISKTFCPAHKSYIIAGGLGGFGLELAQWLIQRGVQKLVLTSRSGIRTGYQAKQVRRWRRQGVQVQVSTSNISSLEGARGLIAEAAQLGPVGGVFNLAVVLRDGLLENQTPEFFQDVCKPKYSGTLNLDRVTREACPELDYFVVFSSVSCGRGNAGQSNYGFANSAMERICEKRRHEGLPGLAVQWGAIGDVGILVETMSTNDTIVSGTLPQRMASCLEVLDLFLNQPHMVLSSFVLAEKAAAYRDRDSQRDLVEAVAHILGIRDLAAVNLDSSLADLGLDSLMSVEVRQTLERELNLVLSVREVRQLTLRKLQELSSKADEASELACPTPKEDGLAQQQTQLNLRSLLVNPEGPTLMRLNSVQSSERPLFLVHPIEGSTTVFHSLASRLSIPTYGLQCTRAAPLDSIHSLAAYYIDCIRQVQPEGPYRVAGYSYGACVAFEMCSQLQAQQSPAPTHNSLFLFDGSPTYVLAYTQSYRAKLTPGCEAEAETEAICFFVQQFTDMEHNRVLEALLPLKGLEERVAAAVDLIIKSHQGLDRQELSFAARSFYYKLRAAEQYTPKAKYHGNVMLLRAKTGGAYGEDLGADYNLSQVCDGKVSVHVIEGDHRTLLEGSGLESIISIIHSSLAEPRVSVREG

Molecule	IC50 [nM]
1-{4-[4-(4-Methylisoquinolin-6-yl)-phenox]-piperidin-1-yl}-propan-1-one HCl [Example 457]	1 to 99
C[C@H]1CCO[C@H]1C(=O)N1CCC(Oc2ccc(-c3cnc4ccccc4c3)cc2)CC1 (racemic) [Example 154, ((2R,3S)/(2S,3R)-3-Methyl-tetrahydrofuran-2-yl)-[4-(4-quinolin-3-yl-phenoxy)-piperidin-1-yl]-methanone, HCl]	1 to 99
C[C@@H]1C[C@H](C)[C@H](C(=O)N2CCC(Oc3ccc(-c4cnc5ccccc5c4)cc3)CC2)O1 (racemic) [Example 155, ((2R,3S,5R)/(2S,3R,5S)-3,5-Dimethyl-tetrahydrofuran-2-yl)-[4-(4-quinolin-3-yl-phenoxy)-piperidin-1-yl]-methanone, HCl]	1000 to 10000
CCC(=O)N1CCC(Oc2ccc(-c3ccc4cccnc4c3)cc2)C1 (stereo in doubt) [Example 342, (S)-1-(3-(4-(Quinolin-7-yl)phenoxy)pyrrolidin-1-yl)propan-1-one, HCl]	1000 to 10000
Cc1ccc2ncccc2c1-c1ccc(OC2CCN(C(=O)C3CCCO3)CC2)cc1 (stereo in doubt) [Example 354, (R)-(4-(4-(6-Methylquinolin-5-yl)phenoxy)piperidin-1-yl)(tetrahydrofuran-2-yl)methanone]	1 to 99
CCC(=O)N1CCC(Oc2ccc(-c3ccc4cnccc4c3)cc2)CC1 [Example 1, 1-[4-(4-Isoquinolin-6-yl-phenoxy)-piperidin-1-yl]-propan-1-one]	1 to 99
CCC(=O)N1CCC(Oc2ccc(-c3cnc4ccccc4c3)cc2)CC1 [Example 2, 1-[4-(4-Quinolin-3-yl-phenoxy)-piperidin-1-yl]-propan-1-one]	1 to 99
CC(C)C(=O)N1CCC(Oc2ccc(-c3ccc4cccnc4c3)cc2)CC1 [Example 3, 2-Methyl-1-[4-(4-quinolin-7-yl-phenoxy)-piperidin-1-yl]-propan-1-one]	100 to 999
CCC(=O)N1CCC(Oc2ccc(-c3ccc4cccnc4c3)cc2)CC1 [Example 4, 1-[4-(4-Quinolin-7-yl-phenoxy)-piperidin-1-yl]-propan-1-one]	1 to 99
CC(C)(C)OC(=O)N1CCC(Oc2ccc(-c3cnc4ccccc4c3)cc2F)CC1 [Example 5, 4-(2-Fluoro-4-quinolin-3-yl-phenox)piperidine-1-carboxylic acid t-butyl ester]	1000 to 10000
CCC(=O)N1CCC(Oc2ccc(-c3cnc4ccccc4c3)cc2F)CC1 [Example 6, 1-[4-(2-Fluoro-4-quinolin-3-yl-phenoxy)piperidin-1-yl]propan-1-one]	1 to 99
CC(C)C(=O)N1CCC(Oc2ccc(-c3cnc4ccccc4c3)cc2F)CC1 [Example 7, 1-[4-(2-Fluoro-4-quinolin-3-yl-phenoxy)-piperidin-1-yl]-2-methyl-propan-1-one]	1 to 99
CCC(=O)N1CCC(Oc2ccc(-c3ccc4occc4c3)cc2)CC1 [Example 8, 1-[4-(4-Benzofuran-5-yl-phenoxy)-piperidin-1-yl]-propan-1-one]	100 to 999
CC(C)C(=O)N1CCC(Oc2ccc(-c3ccc4occc4c3)cc2)CC1 [Example 9, 1-[4-(4-Benzofuran-5-yl-phenoxy)-piperidin-1-yl]-2-methyl-propan-1-one]	1000 to 10000
CCC(=O)N1CCC(Oc2ccc(-c3ccc4ccccc4c3)cc2)CC1 [Example 10, 1-[4-(4-Naphthalen-2-yl-phenoxy)-piperidin-1-yl]-propan-1-one]	1 to 99
CC(C)C(=O)N1CCC(Oc2ccc(-c3ccc4ccccc4c3)cc2)CC1 [Example 11, 2-Methyl-1-[4-(4-naphthalen-2-yl-phenoxy)-piperidin-1-yl]-propan-1-one]	1000 to 10000
CCC(=O)N1CCC(Oc2ccc(-c3cnc4cccnc4c3)cc2)CC1 [Example 12, 1-[4-(4-1,5-Naphthyridin-3-yl-phenoxy)-piperidin-1-yl]-propan-1-one]	1000 to 10000
CC(C)C(=O)N1CCC(Oc2ccc(-c3cnc4cccnc4c3)cc2)CC1 [Example 13, 2-Methyl-1-[4-(4-1,5-naphthyridin-3-yl-phenoxy)-piperidin-1-yl]-propan-1-one]	1000 to 10000
O=C(C1CC1)N1CCC(Oc2ccc(-c3cnc4cccnc4c3)cc2)CC1 [Example 14, Cyclopropyl-[4-(4-1,5-naphthyridin-3-yl-phenoxy)-piperidin-1-yl]-methanone]	1000 to 10000
COC(=O)N1CCC(Oc2ccc(-c3cnc4ccccc4c3)cc2F)CC1 [Example 15, 4-(2-Fluoro-4-quinolin-3-yl-phenoxy)-piperidine-1-carboxylic acid methyl ester]	1000 to 10000
CCC(=O)N1CCC(Oc2ccc(-c3cc4ccccc4nc3Cl)cc2)CC1 [Example 16, 1-{4-[4-(2-Chloroquinolin-3-yl)-phenoxy]-piperidin-1-yl}-propan-1-one]	1000 to 10000

Continued, values first:

IC50 [nM]	Molecule
1 to 99	Cc1c(-c2ccc(OC3CCN(C(=O)[C@H]4CCCO4)C(C)C3)cc2)ccc2cccnc12 (mixture of isomers) [Example 362, {2-Methyl-4-[4-(8-methylquinolin-7-yl)-phenoxy]-piperidin-1-yl}-(R)-tetrahydrofuran-2-yl-methanone, HCl]
100 to 999	CCC(=O)N1CCC(Oc2ccc(-c3ccc4cccnc4c3C)cc2)CC1C (mixture of isomers) [Example 363, 1-{2-Methyl-4-[4-(8-methylquinolin-7-yl)-phenoxy]-piperidin-1-yl}-propan-1-one, HCl]
100 to 999	CCC(=O)N1CCC(Oc2ccc(-c3ccc4cccnc4c3C)cc2)CC1C (mixture of isomers) [Example 364, 1-{2-Methyl-4-[4-(8-methylquinolin-7-yl)-phenoxy]-piperidin-1-yl}-propan-1-one, HCl]
1 to 99	CCC(=O)N1CCC(Oc2ccc(-c3ccc4cccnc4c3C)cc2)C(C)C1 (mixture of isomers) [Example 375, 1-{3-Methyl-4-[4-(8-methylquinolin-7-yl)-phenoxy]-piperidin-1-yl}-propan-1-one, TFA salt]
1000 to 10000	Cc1c(-c2ccc(O[C@H]3CCN4C(=O)CC[C@H]4C3)cc2)ccc2cccnc12 (racemic) [Example 355, (±)-(7S,8aS)-7-(4-(8-Methylquinolin-7-yl)phenoxy)hexahydroindolizin-3 (2H)-one]
1000 to 10000	Cc1c(-c2ccc(O[C@@H]3CCN4C(=O)CC[C@H]4C3)cc2)ccc2cccnc12 (racemic) [Example 356, (±)-(7R,8aS)-7-(4-(8-Methylquinolin-7-yl)phenoxy)hexahydroindolizin-3(2H)-one]
1000 to 10000	Cc1c(-c2ccc(OC3CCN(C(=O)C4CC4)C(C)C3)cc2)ccc2cccnc12 (racemic) [Example 365, Cyclopropyl-{2-methyl-4-[4-(8-methylquinolin-7-yl)-phenoxy]-piperidin-1-yl}-methanone HCl]
1 to 99	Cc1c(-c2ccc(O[C@@H]3CCN(C(=O)[C@@H]4CCCO4)C[C@H]3F)cc2)ccc2cccnc12 (racemic) [Example 372, {(trans)-3-Fluoro-4-[4-(8-methylquinolin-7-yl)-phenoxy]-piperidin-1-yl}-(R)-tetrahydrofuran-2-yl-methanone, HCl]
1000 to 10000	CCC(=O)N1CC[C@H](Oc2ccc(-c3ccc4cccnc4c3C)cc2)[C@H](F)C1 (relative stereo) [Example 367, 1-{cis-3-Fluoro-4-[4-(8-methylquinolin-7-yl)-phenoxy]-piperidin-1-yl}-propan-1-one, HCl]
1000 to 10000	Cc1c(-c2ccc(O[C@H]3CCN(C(=O)C4CC4)C[C@H]3F)cc2)ccc2cccnc12 (relative stereo) [Example 368, Cyclopropyl-{cis-3-fluoro-4-[4-(8-methylquinolin-7-yl)-phenoxy]-piperidin-1-yl}-methanone, HCl]
100 to 999	CCC(=O)N1CC[C@@H](Oc2ccc(-c3ccc4cccnc4c3C)cc2)[C@H](F)C1 (relative stereo) [Example 373, 1-{trans-3-Fluoro-4-[4-(8-methylquinolin-7-yl)-phenoxy]-piperidin-1-yl}-propan-1-one, HCl]
100 to 999	Cc1c(-c2ccc(O[C@@H]3CCN(C(=O)C4CC4)C[C@H]3F)cc2)ccc2cccnc12 (relative stereo) [Example 374, Cyclopropyl-{trans-3-fluoro-4-[4-(8-methylquinolin-7-yl)-phenoxy]-piperidin-1-yl}-methanone, HCl]
1 to 99	Cc1c(-c2ccc(OC3CCN(C(=O)C4CCCO4)CC3C)cc2)ccc2cccnc12 (stereo in doubt) [Example 377, {3-Methyl-4-[4-(8-methylquinolin-7-yl)-phenoxy]-piperidin-1-yl}-(R)-tetrahydrofuran-2-yl-methanone, TFA salt]
